The target in experiment [1] is Angiotensin-converting enzyme 2 (Homo sapiens, UniProt Q9BYF1). Description: Enzyme Inhibition Assay. Particulars: pH 6.5; 22 °C. As to the method: (§1) Enzyme assay was conducted in 384-well microplates format. Activity was monitored by measuring increase in fluorescence (excitation @320 nm, emission @405 nm) over a 60 minute time course using a BMG Polarstar Galaxy fluorescent plate reader. Compound IC50 values were determined using 10-pt concentration ranges. Rates of substrate hydrolysis were determined from time courses and converted to percent inhibition. Percent inhibition was plotted versus compound concentration and fit to the four parameter logistic equation by non-linear regression using Prism Graphpad software.
Sequence of Angiotensin-converting enzyme 2 (Q9BYF1 whole entry): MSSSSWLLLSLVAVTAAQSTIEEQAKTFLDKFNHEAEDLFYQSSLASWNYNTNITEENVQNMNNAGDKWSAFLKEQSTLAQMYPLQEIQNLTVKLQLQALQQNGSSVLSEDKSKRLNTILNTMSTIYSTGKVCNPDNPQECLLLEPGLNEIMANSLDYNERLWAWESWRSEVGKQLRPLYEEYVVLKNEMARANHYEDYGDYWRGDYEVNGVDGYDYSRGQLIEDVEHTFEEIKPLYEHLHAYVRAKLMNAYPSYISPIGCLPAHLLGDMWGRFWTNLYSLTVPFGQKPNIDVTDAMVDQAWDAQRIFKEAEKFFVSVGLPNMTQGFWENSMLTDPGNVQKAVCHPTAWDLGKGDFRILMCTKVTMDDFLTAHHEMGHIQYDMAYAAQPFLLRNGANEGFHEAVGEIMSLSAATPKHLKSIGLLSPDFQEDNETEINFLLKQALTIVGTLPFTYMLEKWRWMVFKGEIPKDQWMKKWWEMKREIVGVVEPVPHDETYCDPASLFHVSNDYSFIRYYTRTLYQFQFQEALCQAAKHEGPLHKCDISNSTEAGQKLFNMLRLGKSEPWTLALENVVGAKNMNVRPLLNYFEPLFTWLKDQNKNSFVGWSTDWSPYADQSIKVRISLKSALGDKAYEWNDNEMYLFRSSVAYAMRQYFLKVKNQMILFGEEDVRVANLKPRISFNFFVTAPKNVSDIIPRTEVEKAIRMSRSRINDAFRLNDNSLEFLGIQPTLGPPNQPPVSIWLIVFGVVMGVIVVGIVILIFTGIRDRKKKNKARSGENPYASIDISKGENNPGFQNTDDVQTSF

Another experiment has as its target T1, Carboxypeptidase A1 (Bos taurus, UniProt P00730).
T1 sequence (P00730 whole entry): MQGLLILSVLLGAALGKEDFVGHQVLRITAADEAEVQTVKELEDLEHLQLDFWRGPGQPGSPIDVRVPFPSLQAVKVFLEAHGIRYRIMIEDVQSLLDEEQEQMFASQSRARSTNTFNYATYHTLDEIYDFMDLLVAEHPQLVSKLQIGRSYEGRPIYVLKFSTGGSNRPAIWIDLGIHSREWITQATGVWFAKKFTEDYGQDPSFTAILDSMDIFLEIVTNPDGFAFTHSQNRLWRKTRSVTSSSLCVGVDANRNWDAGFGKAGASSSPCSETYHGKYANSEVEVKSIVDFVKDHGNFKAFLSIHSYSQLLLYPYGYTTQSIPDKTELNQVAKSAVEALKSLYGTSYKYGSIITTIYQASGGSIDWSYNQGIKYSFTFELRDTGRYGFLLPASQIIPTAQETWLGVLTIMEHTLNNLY
In words: CPA Inhibition Assay. To be noted: pH 7.5; 22 °C. On the procedure: Assay for the inhibition of carboxypeptidase A (CPDA) was conducted in 96-well microplates format. Activity was monitored by measuring decrease in absorbance (328 nm) over a 15 minute time course using a Spectromax 250 absorbance plate reader. Compound IC50 values were determined using 10-pt concentration ranges. Rates of substrate hydrolysis were determined from time courses and converted to percent inhibition. Percent inhibition was plotted versus compound concentration and fit to the four parameter logistic equation by non-linear regression using Prism Graphpad software.

Experiment [2] addresses T2, Angiotensin-converting enzyme (Sus scrofa, UniProt A1YQ85).
T2 sequence (A1YQ85 whole entry): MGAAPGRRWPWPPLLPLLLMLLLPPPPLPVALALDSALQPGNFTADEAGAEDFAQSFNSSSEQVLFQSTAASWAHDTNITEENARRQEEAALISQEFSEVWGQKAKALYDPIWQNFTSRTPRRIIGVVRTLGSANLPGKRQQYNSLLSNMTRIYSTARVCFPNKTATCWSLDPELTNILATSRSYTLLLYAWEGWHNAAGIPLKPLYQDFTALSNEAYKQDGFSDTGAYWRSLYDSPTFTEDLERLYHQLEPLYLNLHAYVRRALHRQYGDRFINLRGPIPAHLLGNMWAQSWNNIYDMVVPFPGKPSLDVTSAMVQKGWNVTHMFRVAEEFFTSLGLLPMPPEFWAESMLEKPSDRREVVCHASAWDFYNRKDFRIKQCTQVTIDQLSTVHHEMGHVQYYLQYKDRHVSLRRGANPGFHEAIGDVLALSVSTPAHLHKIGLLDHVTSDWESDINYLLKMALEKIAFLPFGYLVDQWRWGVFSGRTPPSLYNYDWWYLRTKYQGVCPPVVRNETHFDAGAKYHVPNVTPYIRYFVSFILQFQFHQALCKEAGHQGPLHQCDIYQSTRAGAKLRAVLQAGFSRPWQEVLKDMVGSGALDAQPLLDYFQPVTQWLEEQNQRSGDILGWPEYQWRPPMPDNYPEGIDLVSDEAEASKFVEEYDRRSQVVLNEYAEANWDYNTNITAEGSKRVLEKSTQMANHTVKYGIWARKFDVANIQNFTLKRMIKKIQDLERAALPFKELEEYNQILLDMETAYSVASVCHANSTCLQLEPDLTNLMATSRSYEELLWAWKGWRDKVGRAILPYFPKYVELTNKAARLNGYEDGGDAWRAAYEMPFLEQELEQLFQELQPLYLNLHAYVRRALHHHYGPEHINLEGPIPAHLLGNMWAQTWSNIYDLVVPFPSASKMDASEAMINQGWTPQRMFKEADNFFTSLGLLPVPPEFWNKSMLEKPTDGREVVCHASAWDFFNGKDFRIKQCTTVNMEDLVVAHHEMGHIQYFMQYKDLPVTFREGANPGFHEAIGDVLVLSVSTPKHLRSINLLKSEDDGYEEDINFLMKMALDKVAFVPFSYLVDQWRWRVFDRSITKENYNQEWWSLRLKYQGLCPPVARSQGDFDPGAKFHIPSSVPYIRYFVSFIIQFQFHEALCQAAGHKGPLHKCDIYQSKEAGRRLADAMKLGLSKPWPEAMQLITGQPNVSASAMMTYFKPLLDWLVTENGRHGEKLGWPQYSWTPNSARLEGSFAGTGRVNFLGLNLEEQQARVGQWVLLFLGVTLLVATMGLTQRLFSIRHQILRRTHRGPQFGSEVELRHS
In words: Enzyme Inhibition Assay. Particulars: pH 7.5; 22 °C. On the procedure: as §1

The term IC50 denotes the concentration needed to halve the response being measured. A lower IC50 goes with higher potency. Turning to `CC(C)C[C@H](N[C@@H](Cc1cncn1Cc1ccc(OC(F)(F)F)cc1)C(=O)O)C(=O)O` [(2S)-2-{[(1S)-1-carboxy-2-(1-{[4-(trifluoromethoxy)phenyl]methyl}-1H-imidazol-5-yl)ethyl]amino}-4-methylpentanoic acid], half-maximal inhibition in experiment [1] (IC50) required 52 nM.
As for `CC(C)C[C@H](N[C@@H](Cc1cncn1C(C)(C)C1CCCCC1)C(=O)O)C(=O)O` [(2S)-2-{[(1S)-1-carboxy-2-[1-(2-cyclohexylpropan-2-yl)-1H-imidazol-5-yl]ethyl]amino}-4-methylpentanoic acid], the values for the IC50 (on Carboxypeptidase A1; in experiment [1]; in experiment [2]) were 12000 nM, 10 nM and more than 10000 nM, respectively.
The compound `CC(C)C[C@H](N[C@@H](Cc1cncn1CC1CCCCC1)C(=O)O)C(=O)O` [(2S)-2-{[(1S)-1-carboxy-2-[1-(cyclohexylmethyl)-1H-imidazol-5-yl]ethyl]amino}-4-methylpentanoic acid] came in with an IC50 in experiment [1] of 270 nM. This counts as sub-micromolar.
The same measure, in the same setting: the value for `Cc1ccccc1Cn1cncc1C[C@H](N[C@@H](CC(C)C)C(=O)O)C(=O)O` [(2S)-2-{[(1S)-1-carboxy-2-{1-[(2-methylphenyl)methyl]-1H-imidazol-5-yl}ethyl]amino}-4-methylpentanoic acid] was 290 nM.
For `Cc1ccc(Cn2cncc2C[C@H](N[C@@H](CC(C)C)C(=O)O)C(=O)O)cc1C` [(2S)-2-{[(1S)-1-carboxy-2-{1-[(3,4-dimethylphenyl)methyl]-1H-imidazol-5-yl}ethyl]amino}-4-methylpentanoic acid], the IC50 is more than 10000 nM against Carboxypeptidase A1, 10 nM in experiment [1] and more than 10000 nM in experiment [2].
As to `Cc1cc(C)cc(Cn2cncc2C[C@H](N[C@@H](CC(C)C)C(=O)O)C(=O)O)c1` [(2S)-2-{[(1S)-1-carboxy-2-{1-[(3,5-dimethylphenyl)methyl]-1H-imidazol-5-yl}ethyl]amino}-4-methylpentanoic acid], the IC50 is more than 10000 nM on Carboxypeptidase A1, 1.4 nM in experiment [1] and more than 10000 nM in experiment [2].
Consider `Cc1cccc(Cn2cncc2C[C@H](N[C@@H](CC(C)C)C(=O)O)C(=O)O)c1` [(2S)-2-{[(1S)-1-carboxy-2-{1-[(3-methylphenyl)methyl]-1H-imidazol-5-yl}ethyl]amino}-4-methylpentanoic acid], for which the 50% inhibitory concentration (IC50) on Carboxypeptidase A1 was more than 10000 nM; in experiment [1], 4.2 nM; in experiment [2], more than 10000 nM.
For `CC(C)C[C@H](N[C@@H](Cc1cncn1Cc1ccc(Cl)cc1)C(=O)O)C(=O)O` [(2S)-2-{[(1S)-1-carboxy-2-{1-[(4-chlorophenyl)methyl]-1H-imidazol-5-yl}ethyl]amino}-4-methylpentanoic acid], the IC50 against Carboxypeptidase A1 was more than 10000 nM; in experiment [1] it was 21 nM.
For `Cc1ccc(Cn2cncc2C[C@H](N[C@@H](CC(C)C)C(=O)O)C(=O)O)cc1` [(2S)-2-{[(1S)-1-carboxy-2-{1-[(4-methylphenyl)methyl]-1H-imidazol-5-yl}ethyl]amino}-4-methylpentanoic acid], the values for the IC50 (on Carboxypeptidase A1; in experiment [1]; in experiment [2]) were more than 10000 nM, 32 nM and more than 10000 nM, respectively.
`CC(C)C[C@H](N[C@@H](Cc1cncn1Cc1ccc([N+](=O)[O-])cc1)C(=O)O)C(=O)O` [(2S)-2-{[(1S)-1-carboxy-2-{1-[(4-nitrophenyl)methyl]-1H-imidazol-5-yl}ethyl]amino}-4-methylpentanoic acid]: 76 nM corresponded to half-maximal inhibition in experiment [1] (IC50).
On the same count and under the same terms, the value for `O=C(O)[C@H](Cc1ccccc1)N[C@@H](Cc1cncn1Cc1ccccc1)C(=O)O` [(2S)-2-{[(1S)-2-(1-benzyl-1H-imidazol-5-yl)-1-carboxyethyl]amino}-3-phenylpropanoic acid] was 340 nM.
As to `CC[C@H](N[C@@H](Cc1cncn1Cc1ccccc1)C(=O)O)C(=O)O` [(2S)-2-{[(1S)-2-(1-benzyl-1H-imidazol-5-yl)-1-carboxyethyl]amino}butanoic acid], the IC50 was 2800 nM against Carboxypeptidase A1 and 300 nM in experiment [1].
Turning to `CC(C)C[C@H](N[C@@H](Cc1cncn1Cc1cc(Cl)cc(Cl)c1)C(=O)O)C(=O)O` [MLN4760], the IC50 at Carboxypeptidase A1 was 27000 nM; in experiment [1] it was 0.44 nM; in experiment [2], more than 100000 nM.

Values taken from BindingDB's records for doi:10.1021/ja0277226 (Millennium Pharmaceuticals, 2002).
